Key:
Cyclin D1 = assay: Western blot of Cyclin D1; format: cell-based; conditions: 5 nM and 10 nM
Protocol: Proteins (25–50 ug/lane) were separated on a 4–12% Bis-Tris NuPAGE gel and blotted onto a PVDF membrane (FluoroTrans; VWR). […] Horseradish peroxidase-conjugated secondary antibodies were from Cell Signaling. Proteins were visualized by enhanced chemiluminescence (Millipore) on ChemiDoc camera (Bio-Rad) and protein expression levels were quantified using the lmageJ software. Full anduncropped western blots are presented in Supplemental File.

PDGFRα = target: T1, PDGFRα (Homo sapiens, UniProt P16234); assay: HTRF/ADP-Glo kinase selectivity panel; format: biochemical; conditions: 500 nM, read-out: 1D228(%inhibition)@500nM
T1 construct: purchased Invitrogen (c-Met, TRKA, TRKB, TRKC)
Protocol: (§1) The compound was serial diluted from 10 mM stock in DMSO, dilute the test compound to 0.1 mM (200 times the specified test concentration). 2 × ATP & Substrate solution and 2 × kinase & Metal solution were prepared using assay buffer; Transfer 25 nL compound to 384 assay plate by Echo 655; After centrifugation, add 2.5 μL 2 × kinase/metal ion solution 384 assay plate, and incubate at 25 °C for 10 min. 2 × XL665 & Antibody solution were prepared with detection buffer; 5 μL of Kinase Detection Reagent was added to the well, and incubated for 60 min at 25 °C; The fluorescence signals of 620 nm (Cryptate) and 665 nm (XL665) were read by microtiter plate reader; […]

MET = target: T2, MET (Homo sapiens, UniProt P08581); assay: HTRF/ADP-Glo kinase selectivity panel; format: biochemical; conditions: 500 nM, read-out: 1D228(%inhibition)@500nM
T2 construct: purchased Invitrogen (c-Met, TRKA, TRKB, TRKC)
Protocol: as §1

ABL2 = target: T3, ABL2 (Homo sapiens, UniProt P42684); assay: HTRF/ADP-Glo kinase selectivity panel; format: biochemical; conditions: 500 nM, read-out: 1D228(%inhibition)@500nM
T3 construct: purchased Invitrogen (c-Met, TRKA, TRKB, TRKC)
Protocol: as §1

SYK = target: T4, SYK (Homo sapiens, UniProt P43405); assay: HTRF/ADP-Glo kinase selectivity panel; format: biochemical; conditions: 500 nM, read-out: 1D228(%inhibition)@500nM
T4 construct: purchased Invitrogen (c-Met, TRKA, TRKB, TRKC)
Protocol: as §1

EGFR = target: T5, EGFR (Homo sapiens, UniProt P00533); assay: HTRF/ADP-Glo kinase selectivity panel; format: biochemical; conditions: 500 nM, read-out: 1D228(%inhibition)@500nM
T5 construct: purchased Invitrogen (c-Met, TRKA, TRKB, TRKC)
Protocol: as §1

INSR = target: T6, INSR (Homo sapiens, UniProt P06213); assay: HTRF/ADP-Glo kinase selectivity panel; format: biochemical; conditions: 500 nM, read-out: 1D228(%inhibition)@500nM
T6 construct: purchased Invitrogen (c-Met, TRKA, TRKB, TRKC)
Protocol: as §1

JAK2 = target: T7, JAK2 (Homo sapiens, UniProt O60674); assay: HTRF/ADP-Glo kinase selectivity panel; format: biochemical; conditions: 500 nM, read-out: 1D228(%inhibition)@500nM
T7 construct: purchased Invitrogen (c-Met, TRKA, TRKB, TRKC)
Protocol: as §1

FYN [b] = target: T8, FYN [b] (Homo sapiens, UniProt P06241); assay: HTRF/ADP-Glo kinase selectivity panel; format: biochemical; conditions: 500 nM, read-out: 1D228(%inhibition)@500nM
T8 construct: purchased Invitrogen (c-Met, TRKA, TRKB, TRKC)
Protocol: as §1

AXL = target: T9, AXL (Homo sapiens, UniProt P30530); assay: HTRF/ADP-Glo kinase selectivity panel; format: biochemical; conditions: 500 nM, read-out: 1D228(%inhibition)@500nM
T9 construct: purchased Invitrogen (c-Met, TRKA, TRKB, TRKC)
Protocol: as §1

FGR = target: T10, FGR (Homo sapiens, UniProt P09769); assay: HTRF/ADP-Glo kinase selectivity panel; format: biochemical; conditions: 500 nM, read-out: 1D228(%inhibition)@500nM
T10 construct: purchased Invitrogen (c-Met, TRKA, TRKB, TRKC)
Protocol: as §1

CSK = target: T11, CSK (Homo sapiens, UniProt P41240); assay: HTRF/ADP-Glo kinase selectivity panel; format: biochemical; conditions: 500 nM, read-out: 1D228(%inhibition)@500nM
T11 construct: purchased Invitrogen (c-Met, TRKA, TRKB, TRKC)
Protocol: as §1

EPHA1 = target: T12, EPHA1 (Homo sapiens, UniProt P21709); assay: HTRF/ADP-Glo kinase selectivity panel; format: biochemical; conditions: 500 nM, read-out: 1D228(%inhibition)@500nM
T12 construct: purchased Invitrogen (c-Met, TRKA, TRKB, TRKC)
Protocol: as §1

YES = target: T13, YES (Homo sapiens, UniProt P07947); assay: HTRF/ADP-Glo kinase selectivity panel; format: biochemical; conditions: 500 nM, read-out: 1D228(%inhibition)@500nM
T13 construct: purchased Invitrogen (c-Met, TRKA, TRKB, TRKC)
Protocol: as §1

FRK = target: T14, FRK (Homo sapiens, UniProt P42685); assay: HTRF/ADP-Glo kinase selectivity panel; format: biochemical; conditions: 500 nM, read-out: 1D228(%inhibition)@500nM
T14 construct: purchased Invitrogen (c-Met, TRKA, TRKB, TRKC)
Protocol: as §1

IGF1R = target: T15, IGF1R (Homo sapiens, UniProt P08069); assay: HTRF/ADP-Glo kinase selectivity panel; format: biochemical; conditions: 500 nM, read-out: 1D228(%inhibition)@500nM
T15 construct: purchased Invitrogen (c-Met, TRKA, TRKB, TRKC)
Protocol: as §1

EPHA7 = target: T16, EPHA7 (Homo sapiens, UniProt Q15375); assay: HTRF/ADP-Glo kinase selectivity panel; format: biochemical; conditions: 500 nM, read-out: 1D228(%inhibition)@500nM
T16 construct: purchased Invitrogen (c-Met, TRKA, TRKB, TRKC)
Protocol: as §1

FLT4 = target: T17, FLT4 (Homo sapiens, UniProt P35916); assay: HTRF/ADP-Glo kinase selectivity panel; format: biochemical; conditions: 500 nM, read-out: 1D228(%inhibition)@500nM
T17 construct: purchased Invitrogen (c-Met, TRKA, TRKB, TRKC)
Protocol: as §1

MUSK = target: T18, MUSK (Homo sapiens, UniProt O15146); assay: HTRF/ADP-Glo kinase selectivity panel; format: biochemical; conditions: 500 nM, read-out: 1D228(%inhibition)@500nM
T18 construct: purchased Invitrogen (c-Met, TRKA, TRKB, TRKC)
Protocol: as §1

EPHA8 = target: T19, EPHA8 (Homo sapiens, UniProt P29322); assay: HTRF/ADP-Glo kinase selectivity panel; format: biochemical; conditions: 500 nM, read-out: 1D228(%inhibition)@500nM
T19 construct: purchased Invitrogen (c-Met, TRKA, TRKB, TRKC)
Protocol: as §1

BRK = target: T20, BRK (Homo sapiens, UniProt Q13882); assay: HTRF/ADP-Glo kinase selectivity panel; format: biochemical; conditions: 500 nM, read-out: 1D228(%inhibition)@500nM
T20 construct: purchased Invitrogen (c-Met, TRKA, TRKB, TRKC)
Protocol: as §1

EPHB3 = target: T21, EPHB3 (Homo sapiens, UniProt P54753); assay: HTRF/ADP-Glo kinase selectivity panel; format: biochemical; conditions: 500 nM, read-out: 1D228(%inhibition)@500nM
T21 construct: purchased Invitrogen (c-Met, TRKA, TRKB, TRKC)
Protocol: as §1

LYNa = target: T22, LYNa (Homo sapiens, UniProt P07948); assay: HTRF/ADP-Glo kinase selectivity panel; format: biochemical; conditions: 500 nM, read-out: 1D228(%inhibition)@500nM
T22 construct: purchased Invitrogen (c-Met, TRKA, TRKB, TRKC)
Protocol: as §1

EGFR T790M L858R = target: T23, EGFR T790M L858R (Homo sapiens, UniProt P00533, L858R/T790M); assay: HTRF/ADP-Glo kinase selectivity panel; format: biochemical; conditions: 500 nM, read-out: 1D228(%inhibition)@500nM
T23 construct: purchased Invitrogen (c-Met, TRKA, TRKB, TRKC)
Protocol: as §1

RON = target: T24, RON (Homo sapiens, UniProt Q04912); assay: HTRF/ADP-Glo kinase selectivity panel; format: biochemical; conditions: 500 nM, read-out: 1D228(%inhibition)@500nM
T24 construct: purchased Invitrogen (c-Met, TRKA, TRKB, TRKC)
Protocol: as §1

FLT1 = target: T25, FLT1 (Homo sapiens, UniProt P17948); assay: HTRF/ADP-Glo kinase selectivity panel; format: biochemical; conditions: 500 nM, read-out: 1D228(%inhibition)@500nM
T25 construct: purchased Invitrogen (c-Met, TRKA, TRKB, TRKC)
Protocol: as §1

FAK = target: T26, FAK (Homo sapiens, UniProt Q05397); assay: HTRF/ADP-Glo kinase selectivity panel; format: biochemical; conditions: 500 nM, read-out: 1D228(%inhibition)@500nM
T26 construct: purchased Invitrogen (c-Met, TRKA, TRKB, TRKC)
Protocol: as §1

JAK1 = target: T27, JAK1 (Homo sapiens, UniProt P23458); assay: HTRF/ADP-Glo kinase selectivity panel; format: biochemical; conditions: 500 nM, read-out: 1D228(%inhibition)@500nM
T27 construct: purchased Invitrogen (c-Met, TRKA, TRKB, TRKC)
Protocol: as §1

SRM = target: T28, SRM (Homo sapiens, UniProt Q9H3Y6); assay: HTRF/ADP-Glo kinase selectivity panel; format: biochemical; conditions: 500 nM, read-out: 1D228(%inhibition)@500nM
T28 construct: purchased Invitrogen (c-Met, TRKA, TRKB, TRKC)
Protocol: as §1

[1] = Liver microsomal stability assay; format: in vitro ADME; conditions: liver microsomes, pH 7.4
Protocol: The incubation system (including 0.1 M PH 7.4 phosphate buffer, NADPH generation system, UGT incubation system, 0.5 mg/mL liver microsomal protein and appropriate concentration of drug to be tested) was incubated in a water bath at 37 °C for […]. Each sample was incubated three times in parallel, and an equal volume of pre-chilled acetonitrile was added at preset reaction time points, such as 0, 5, 10, 15, 30 and 60 min. The reaction was terminated by the addition of acetonitrile. The remaining content of the prototype drug in the warm incubation solution was determined by HPLC, HPLC-MC and HPLC-MC/MC.

T18 sequence (O15146 24-869): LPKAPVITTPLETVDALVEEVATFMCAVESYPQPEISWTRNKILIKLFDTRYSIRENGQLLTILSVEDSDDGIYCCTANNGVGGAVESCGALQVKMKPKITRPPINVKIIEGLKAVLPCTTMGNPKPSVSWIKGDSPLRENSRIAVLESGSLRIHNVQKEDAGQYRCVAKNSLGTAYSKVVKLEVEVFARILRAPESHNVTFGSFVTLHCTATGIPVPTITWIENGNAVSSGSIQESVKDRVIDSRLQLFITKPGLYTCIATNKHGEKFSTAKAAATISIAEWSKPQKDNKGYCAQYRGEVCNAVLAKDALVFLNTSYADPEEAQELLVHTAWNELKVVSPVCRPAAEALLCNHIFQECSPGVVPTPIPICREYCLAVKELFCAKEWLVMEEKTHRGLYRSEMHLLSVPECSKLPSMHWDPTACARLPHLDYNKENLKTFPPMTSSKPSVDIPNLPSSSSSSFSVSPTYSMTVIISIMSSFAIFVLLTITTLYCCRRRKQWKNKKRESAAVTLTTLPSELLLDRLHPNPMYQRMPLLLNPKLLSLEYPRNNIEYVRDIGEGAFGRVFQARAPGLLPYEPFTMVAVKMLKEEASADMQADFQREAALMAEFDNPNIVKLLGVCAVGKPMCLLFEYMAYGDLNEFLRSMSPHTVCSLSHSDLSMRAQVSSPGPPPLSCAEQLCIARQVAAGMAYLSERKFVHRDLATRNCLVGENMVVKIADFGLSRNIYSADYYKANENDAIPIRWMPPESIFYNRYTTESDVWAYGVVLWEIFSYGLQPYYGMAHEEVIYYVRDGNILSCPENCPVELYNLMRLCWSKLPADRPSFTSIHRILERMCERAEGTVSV
T1 sequence (P16234 24-1089): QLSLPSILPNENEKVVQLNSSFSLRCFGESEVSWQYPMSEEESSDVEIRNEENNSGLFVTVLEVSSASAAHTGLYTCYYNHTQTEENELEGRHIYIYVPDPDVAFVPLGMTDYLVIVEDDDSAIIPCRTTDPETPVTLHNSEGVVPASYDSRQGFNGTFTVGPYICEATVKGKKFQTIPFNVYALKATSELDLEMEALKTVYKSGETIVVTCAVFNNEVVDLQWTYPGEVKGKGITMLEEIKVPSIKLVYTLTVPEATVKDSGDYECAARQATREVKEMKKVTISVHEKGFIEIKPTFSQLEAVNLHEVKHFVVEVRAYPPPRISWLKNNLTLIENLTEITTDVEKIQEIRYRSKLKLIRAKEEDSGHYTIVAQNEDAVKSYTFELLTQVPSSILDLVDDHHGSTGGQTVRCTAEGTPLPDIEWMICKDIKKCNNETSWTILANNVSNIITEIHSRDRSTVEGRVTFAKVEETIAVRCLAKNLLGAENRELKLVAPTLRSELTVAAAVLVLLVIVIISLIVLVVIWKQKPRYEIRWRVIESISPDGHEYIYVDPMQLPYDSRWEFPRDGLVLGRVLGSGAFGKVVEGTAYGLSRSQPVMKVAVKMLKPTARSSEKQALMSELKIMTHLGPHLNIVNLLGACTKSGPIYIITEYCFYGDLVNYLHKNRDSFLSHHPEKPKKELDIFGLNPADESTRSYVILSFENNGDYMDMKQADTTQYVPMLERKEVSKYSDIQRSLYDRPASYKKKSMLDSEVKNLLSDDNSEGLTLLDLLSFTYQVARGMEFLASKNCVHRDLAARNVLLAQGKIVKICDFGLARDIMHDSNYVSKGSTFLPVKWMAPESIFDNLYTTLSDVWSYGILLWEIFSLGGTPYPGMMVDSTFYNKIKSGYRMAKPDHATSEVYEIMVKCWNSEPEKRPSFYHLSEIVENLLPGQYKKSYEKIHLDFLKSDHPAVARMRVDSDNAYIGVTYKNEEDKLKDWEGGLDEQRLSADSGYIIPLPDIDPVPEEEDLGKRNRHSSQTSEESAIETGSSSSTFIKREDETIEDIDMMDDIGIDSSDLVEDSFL
T14 sequence (P42685 whole entry): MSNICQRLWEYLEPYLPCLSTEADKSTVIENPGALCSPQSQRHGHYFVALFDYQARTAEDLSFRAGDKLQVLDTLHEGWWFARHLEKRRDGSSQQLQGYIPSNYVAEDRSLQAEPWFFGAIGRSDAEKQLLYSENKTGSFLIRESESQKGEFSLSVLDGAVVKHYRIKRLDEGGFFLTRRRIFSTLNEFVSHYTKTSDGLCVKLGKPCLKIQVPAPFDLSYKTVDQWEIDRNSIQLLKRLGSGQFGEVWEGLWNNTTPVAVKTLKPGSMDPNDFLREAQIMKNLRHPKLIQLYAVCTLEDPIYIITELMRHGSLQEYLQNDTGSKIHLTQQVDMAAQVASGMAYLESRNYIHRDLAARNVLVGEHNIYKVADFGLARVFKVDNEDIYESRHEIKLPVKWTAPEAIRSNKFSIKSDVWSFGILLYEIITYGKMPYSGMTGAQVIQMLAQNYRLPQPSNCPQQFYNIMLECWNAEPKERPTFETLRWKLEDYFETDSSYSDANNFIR
T19 sequence (P29322 28-1005): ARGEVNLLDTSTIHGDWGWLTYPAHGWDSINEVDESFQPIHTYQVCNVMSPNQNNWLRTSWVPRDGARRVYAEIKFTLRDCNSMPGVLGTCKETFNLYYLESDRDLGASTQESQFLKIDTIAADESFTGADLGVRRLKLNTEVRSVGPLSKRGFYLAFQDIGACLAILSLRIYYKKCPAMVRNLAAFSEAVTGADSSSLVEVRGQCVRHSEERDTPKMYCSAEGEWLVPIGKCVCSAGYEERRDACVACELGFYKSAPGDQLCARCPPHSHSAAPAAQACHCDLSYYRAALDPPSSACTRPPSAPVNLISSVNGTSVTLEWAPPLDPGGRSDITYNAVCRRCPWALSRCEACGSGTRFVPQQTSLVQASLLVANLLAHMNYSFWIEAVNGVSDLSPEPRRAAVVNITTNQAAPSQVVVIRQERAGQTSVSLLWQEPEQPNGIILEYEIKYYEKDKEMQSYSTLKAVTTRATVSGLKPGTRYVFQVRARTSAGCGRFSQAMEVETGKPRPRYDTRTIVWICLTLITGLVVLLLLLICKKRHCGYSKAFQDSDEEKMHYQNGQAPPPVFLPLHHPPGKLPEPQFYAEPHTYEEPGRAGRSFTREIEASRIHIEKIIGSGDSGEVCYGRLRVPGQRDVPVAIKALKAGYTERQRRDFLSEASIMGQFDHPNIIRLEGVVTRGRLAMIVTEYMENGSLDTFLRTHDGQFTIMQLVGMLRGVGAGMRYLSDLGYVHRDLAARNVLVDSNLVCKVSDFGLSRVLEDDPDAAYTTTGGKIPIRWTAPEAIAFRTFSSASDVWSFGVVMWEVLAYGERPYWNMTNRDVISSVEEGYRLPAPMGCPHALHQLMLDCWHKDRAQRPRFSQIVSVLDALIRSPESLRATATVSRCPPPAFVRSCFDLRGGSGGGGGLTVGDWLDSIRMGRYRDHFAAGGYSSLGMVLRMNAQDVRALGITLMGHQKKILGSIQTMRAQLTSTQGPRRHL
T24 sequence (Q04912 25-1400): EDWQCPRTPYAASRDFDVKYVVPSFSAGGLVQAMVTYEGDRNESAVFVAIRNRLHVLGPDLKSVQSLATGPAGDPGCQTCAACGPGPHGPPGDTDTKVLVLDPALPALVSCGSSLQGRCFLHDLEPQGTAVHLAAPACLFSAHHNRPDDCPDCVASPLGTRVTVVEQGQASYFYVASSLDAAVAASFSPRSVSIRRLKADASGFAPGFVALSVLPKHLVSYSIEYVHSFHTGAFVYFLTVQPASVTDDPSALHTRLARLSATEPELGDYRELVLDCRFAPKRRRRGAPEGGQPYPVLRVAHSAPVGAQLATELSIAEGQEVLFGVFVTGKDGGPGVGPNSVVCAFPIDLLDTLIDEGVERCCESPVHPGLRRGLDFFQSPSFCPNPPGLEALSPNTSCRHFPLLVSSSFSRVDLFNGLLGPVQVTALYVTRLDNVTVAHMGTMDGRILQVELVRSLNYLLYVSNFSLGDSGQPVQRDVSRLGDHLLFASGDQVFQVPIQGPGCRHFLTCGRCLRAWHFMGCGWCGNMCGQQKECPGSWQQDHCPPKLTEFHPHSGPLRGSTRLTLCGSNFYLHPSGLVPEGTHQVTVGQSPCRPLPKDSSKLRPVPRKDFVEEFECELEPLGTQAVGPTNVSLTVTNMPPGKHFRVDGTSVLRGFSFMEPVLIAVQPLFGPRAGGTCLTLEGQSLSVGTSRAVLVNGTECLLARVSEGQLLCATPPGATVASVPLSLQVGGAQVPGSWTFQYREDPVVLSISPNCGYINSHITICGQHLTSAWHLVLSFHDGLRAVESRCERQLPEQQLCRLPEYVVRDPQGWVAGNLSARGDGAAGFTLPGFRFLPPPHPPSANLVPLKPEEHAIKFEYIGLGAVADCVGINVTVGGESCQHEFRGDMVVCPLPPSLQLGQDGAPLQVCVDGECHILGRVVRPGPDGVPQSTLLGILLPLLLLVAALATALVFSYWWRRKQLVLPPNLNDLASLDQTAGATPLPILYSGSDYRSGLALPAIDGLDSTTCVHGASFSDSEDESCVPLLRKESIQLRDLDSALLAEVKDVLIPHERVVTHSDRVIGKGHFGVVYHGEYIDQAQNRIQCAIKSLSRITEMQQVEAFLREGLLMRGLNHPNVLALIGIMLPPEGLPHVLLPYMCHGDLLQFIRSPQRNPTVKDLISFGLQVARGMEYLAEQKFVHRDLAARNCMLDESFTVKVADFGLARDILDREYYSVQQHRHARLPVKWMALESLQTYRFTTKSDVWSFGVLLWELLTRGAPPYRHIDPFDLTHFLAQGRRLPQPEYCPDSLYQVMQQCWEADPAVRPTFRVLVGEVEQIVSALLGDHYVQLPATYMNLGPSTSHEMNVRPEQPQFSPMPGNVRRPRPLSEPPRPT

[2H][C@@](C)(c1cccc(-c2ncc(OCC3CCN(C)CC3)cn2)c1)n1nc(-c2cccc(C#N)c2)ccc1=O [1D228]
Cyclin D1 expression (Cyclin D1): substantially inhibited
inhibition at 0.5 µM (PDGFRα): 8.21%
inhibition at 0.5 µM (MET): 98.4%
inhibition at 0.5 µM (ABL2): 4.45%
inhibition at 0.5 µM (SYK): 2.47%
inhibition at 0.5 µM (EGFR): 1.17%
inhibition at 0.5 µM (INSR): 18.6%
inhibition at 0.5 µM (JAK2): 1.82%
inhibition at 0.5 µM (FYN [b]): 10.9%
inhibition at 0.5 µM (AXL): 89.2%
inhibition at 0.5 µM (FGR): -20.7%
inhibition at 0.5 µM (CSK): -3.07%
inhibition at 0.5 µM (EPHA1): -1.53%
inhibition at 0.5 µM (YES): 11.3%
inhibition at 0.5 µM (FRK): 11.3%
inhibition at 0.5 µM (IGF1R): 5.26%
inhibition at 0.5 µM (EPHA7): -1.36%
inhibition at 0.5 µM (FLT4): -3.03%
inhibition at 0.5 µM (MUSK): 9.13%
inhibition at 0.5 µM (EPHA8): 8.52%
inhibition at 0.5 µM (BRK): 3.19%
inhibition at 0.5 µM (EPHB3): 5.68%
inhibition at 0.5 µM (LYNa): 27.3%
inhibition at 0.5 µM (EGFR T790M L858R): 11.1%
inhibition at 0.5 µM (RON): 1.38%
inhibition at 0.5 µM (FLT1): 6%
inhibition at 0.5 µM (FAK): -9.58%
inhibition at 0.5 µM (JAK1): 7.19%
inhibition at 0.5 µM (SRM): 2.66%
half-life ([1]; cynomolgus monkey, Macaca fascicularis liver microsome): 27.6 h
half-life ([1]; mouse, CD - 1 mice liver microsome): 1.7 h

Source: PMC10636171 (Cell Death & Disease, 2023)
